Assay results taken from patent US8798939B2, “Methods for designing, selecting and/or optimizing allosteric processing inhibitors for matrix metalloproteinases” (Janssen Pharmaceutica N.V., priority 2011, dated 2014).

Molecular target: T1, proMMP9 activation to active MMP9 in HFL-1 cells (Homo sapiens, UniProt P14780)
T1 construct: endogenous in cells; host or cells: HFL-1 (ATCC CCL-153), TNFα plus 30 nM human neutrophil elastase
Test: Activation of proMMP9 by human fetal lung fibroblast (HFL-1) cultures (Western blot)
Assay type: cell-based
Settings: 3.3 μM, 72 hrs, mAb-L51/82
Protocol: Example 2 was assessed additionally for ability to block the maturation of proMMP9 to active MMP9 in cultures of human fetal lung fibroblasts (HFL-1, American Type Culture Collection #CCL-153). Unlike rat synoviocytes, HFL-1 cells were unable to process proMMP9 to the active form without addition of neutrophil elastase. […] Rather, the function of elastase in this assay may be to inactivate tissue inhibitors of matrix metalloproteinases (TIMPs) that repress endogenous pathways of MMP9 activation (Skold, Liu et al. 1999).
HLF-1 were maintained in monolayer culture in DMEM with 10% FCS and were used between passage numbers 5-15. HLF-1 were embedded in collagen gels as described for rat SCW synoviocytes (vida supra). […] The plates were cultured an additional 72 hrs, at which time MMP9 secreted into the conditioned media was bound to gelatin-sepharose and evaluated by Western blot analysis as described for the rat synoviocyte cultures (vida supra). mAb-51/82 detected three forms of MMP9 in HFL-1 cultures.
A second experiment was performed to determine if the 80 kD form was mature active MMP9 and to determine the potency of Example 2 as an inhibitor of MMP9 maturation in this assay. […] In the absence of Example 2, pAb-1246 readily detected MMP9 with an electrophoretic mobility of approximately 80 kD. […]

T1 sequence (P14780 20-707 limits assumed): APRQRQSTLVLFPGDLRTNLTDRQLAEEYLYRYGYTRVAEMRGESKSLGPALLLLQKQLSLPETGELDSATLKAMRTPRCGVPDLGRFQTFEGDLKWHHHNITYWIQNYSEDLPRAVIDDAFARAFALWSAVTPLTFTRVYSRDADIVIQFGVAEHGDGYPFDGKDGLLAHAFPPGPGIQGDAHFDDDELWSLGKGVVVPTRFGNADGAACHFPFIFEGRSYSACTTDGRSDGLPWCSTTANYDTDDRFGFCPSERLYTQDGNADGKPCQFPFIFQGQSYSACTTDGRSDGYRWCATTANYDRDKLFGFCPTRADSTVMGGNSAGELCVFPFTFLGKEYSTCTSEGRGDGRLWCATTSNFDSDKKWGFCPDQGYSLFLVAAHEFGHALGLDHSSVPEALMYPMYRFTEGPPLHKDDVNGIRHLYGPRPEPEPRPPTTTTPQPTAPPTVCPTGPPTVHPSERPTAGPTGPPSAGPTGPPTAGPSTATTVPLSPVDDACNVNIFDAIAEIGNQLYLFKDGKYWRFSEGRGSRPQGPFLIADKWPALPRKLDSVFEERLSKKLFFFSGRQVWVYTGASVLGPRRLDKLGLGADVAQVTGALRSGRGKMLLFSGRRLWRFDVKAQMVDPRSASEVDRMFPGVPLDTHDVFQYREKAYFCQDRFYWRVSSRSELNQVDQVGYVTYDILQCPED

- Signal Total: 91346 INT * mm^2
SMILES: Cc1nc(C)c(-c2csc(Nc3cc(S(N)(=O)=O)ccc3OC(C)C)n2)s1 [Example 2, 3-(2′,4′-Dimethyl-[4,5′]bithiazolyl-2-ylamino)-4-isopropoxy-benzenesulfonamide.HBr]
